Values joined by “and” are separate entries in the source; they are usually repeats but may differ in a detail not shown here. Equal entries are not always repeated.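 These data come from cells grown in 96-well plates and exposed to compound for 48 hours at five concentrations. Here, GI50 denotes the concentration required for 50% inhibition of growth. TGI is the concentration that stops growth completely.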
Legend:
Experiment in all cases: NCI tumour cell line growth inhibition, 48 h
HCC-2998 colon = test system: HCC-2998 colon
NCI-H460 lung = test system: NCI-H460 lung
A498 renal = test system: A498 renal
BT-549 breast = test system: BT-549 breast
OVCAR-8 ovarian = test system: OVCAR-8 ovarian
SR leukemia = test system: SR leukemia
SNB-75 CNS = test system: SNB-75 CNS
MALME-3M melanoma = test system: MALME-3M melanoma
OVCAR-3 ovarian = test system: OVCAR-3 ovarian
MDA-MB-231 breast = test system: MDA-MB-231 breast

## CCN1C(=O)CNc2ncc(-c3ccc(-c4ncn[nH]4)nc3C)nc21
HCC-2998 colon
  GI50: 0.338 µM
  TGI: 12.4 µM
NCI-H460 lung
  GI50: 0.118 µM
  TGI: 11.3 µM
A498 renal
  GI50: 0.013 µM
  TGI: 0.0613 µM
BT-549 breast
  GI50: 0.0716 µM
  TGI: 0.695 µM
OVCAR-8 ovarian
  GI50: 0.385 µM
  TGI: 5.23 µM
SR leukemia
  GI50: 0.253 µM
  TGI: 4.09 µM
SNB-75 CNS
  GI50: 0.0369 µM
  TGI: 0.321 µM
MALME-3M melanoma
  GI50: 0.0227 µM
  TGI: 0.221 µM
OVCAR-3 ovarian
  GI50: 0.189 µM
  TGI: 4.49 µM
MDA-MB-231 breast
  GI50: 0.127 µM
  TGI: 3.33 µM

## COc1ccc(OC)c(/C=C/C(=O)N/N=C/c2ccc(Cl)cc2)c1
HCC-2998 colon
  GI50: 0.0831 µM
  TGI: 0.653 µM
NCI-H460 lung
  GI50: 0.0704 µM
  TGI: > 37.1 µM
A498 renal
  GI50: 0.111 µM
  TGI: 36.6 µM
BT-549 breast
  GI50: 1.17 µM
  TGI: > 100 µM
OVCAR-8 ovarian
  GI50: 0.35 µM
  TGI: > 100 µM
SR leukemia
  GI50: 0.0389 µM
  TGI: 16.4 µM
SNB-75 CNS
  GI50: 0.0537 µM
  TGI: 0.674 µM
OVCAR-3 ovarian
  GI50: 0.0285 µM
  TGI: 0.0875 µM
MDA-MB-231 breast
  GI50: 0.531 µM
  TGI: > 100 µM

## COc1cc(C2=NN(C(C)=O)C(c3ccc(OC(C)=O)cc3OC(C)=O)O2)c(OC(C)=O)c2ccccc12 (configuration not stated)
HCC-2998 colon
  GI50: 1.03 µM
  TGI: 27.9 µM
NCI-H460 lung
  GI50: 1.15 µM
  TGI: > 33.4 µM
A498 renal
  GI50: 1.59 µM
  TGI: 11.6 µM
BT-549 breast
  GI50: 1.87 µM
  TGI: 47.6 µM
OVCAR-8 ovarian
  GI50: 0.426 µM
  TGI: 33.7 µM
SR leukemia
  GI50: 0.537 µM
  TGI: > 27.4 µM
SNB-75 CNS
  GI50: 2.28 µM
  TGI: 29.6 µM
MALME-3M melanoma
  GI50: 1.83 µM
  TGI: 20.5 µM
OVCAR-3 ovarian
  GI50: 0.402 µM
  TGI: 13.9 µM
MDA-MB-231 breast
  GI50: 0.543 µM
  TGI: > 56.4 µM

## CN(C)CCNC(=O)c1cccc(C(=O)Nc2ccccc2)c1[N+](=O)[O-]
HCC-2998 colon
  TGI: > 100 µM
NCI-H460 lung
  TGI: > 100 µM
A498 renal
  TGI: > 100 µM
BT-549 breast
  TGI: > 100 µM
OVCAR-8 ovarian
  TGI: > 100 µM
SR leukemia
  TGI: > 100 µM
SNB-75 CNS
  TGI: > 100 µM
MALME-3M melanoma
  TGI: > 100 µM
OVCAR-3 ovarian
  TGI: > 100 µM
MDA-MB-231 breast
  TGI: > 100 µM

## O=C(c1cccc(O)c1O)c1cn(Cc2ccc(F)cc2)c2cccc(O)c12
HCC-2998 colon
  GI50: 1.55 µM
  TGI: 11.4 µM
NCI-H460 lung
  GI50: 2.01 µM
  TGI: 11 µM
A498 renal
  GI50: 12.9 µM
  TGI: 25.6 µM
BT-549 breast
  GI50: 7.72 µM
  TGI: 21.6 µM
OVCAR-8 ovarian
  GI50: 3.56 µM
  TGI: 18.9 µM
SR leukemia
  GI50: 0.867 µM
  TGI: 7.81 µM
SNB-75 CNS
  GI50: 2.49 µM
  TGI: 12 µM
MALME-3M melanoma
  GI50: 4.83 µM
  TGI: 22 µM
OVCAR-3 ovarian
  GI50: 3.27 µM
  TGI: 18.1 µM
MDA-MB-231 breast
  GI50: 5.83 µM
  TGI: 40.2 µM

## CCC1(O)C(=O)OCc2c1cc1n(c2=O)Cc2cc3ccc(C=O)cc3nc2-1 (configuration not stated)
HCC-2998 colon
  GI50: 2.52 µM
  TGI: 10.4 µM and 26.1 µM
NCI-H460 lung
  GI50: 0.301 µM
  TGI: 6.59 µM and 26.4 µM
A498 renal
  GI50: 5.39 µM
  TGI: 13.5 µM and 19.5 µM
BT-549 breast
  GI50: 4.56 µM
  TGI: 29.8 µM and 59.6 µM
OVCAR-8 ovarian
  GI50: 0.539 µM
  TGI: 8.02 µM and 24.2 µM
SR leukemia
  GI50: 0.0647 µM
SNB-75 CNS
  TGI: 30.8 µM and 14.5 µM
MALME-3M melanoma
  GI50: 13.2 µM
  TGI: 50 µM and 41.2 µM
OVCAR-3 ovarian
  GI50: 5.05 µM
  TGI: 30.6 µM and 23.4 µM
MDA-MB-231 breast
  GI50: 19.4 µM
  TGI: 50 µM and 68.2 µM

## CCC#CC[C@H]1C/C=C2/C(=O)C=C[C@@H]2C/C=C\CCCC(=O)O1
HCC-2998 colon
  GI50: 0.991 µM
  TGI: 1.8 µM
NCI-H460 lung
  GI50: 1.14 µM
  TGI: 3.65 µM
A498 renal
  GI50: 1.08 µM
  TGI: 2.49 µM
BT-549 breast
  GI50: 1.11 µM
  TGI: 3.27 µM
OVCAR-8 ovarian
  GI50: 0.783 µM
  TGI: 9.71 µM
SR leukemia
  GI50: 0.328 µM
  TGI: 4.26 µM
SNB-75 CNS
  GI50: 4.38 µM
  TGI: 10.8 µM
MALME-3M melanoma
  GI50: 1.13 µM
  TGI: 3.24 µM
OVCAR-3 ovarian
  GI50: 0.568 µM
  TGI: 3.31 µM
MDA-MB-231 breast
  GI50: 1.85 µM
  TGI: 9.28 µM

## CCN(CC)CCN1CC(O)=C(c2nc(-c3ccc(Cl)cc3)cs2)C1=N
HCC-2998 colon
  GI50: 1.95 µM
  TGI: 3.91 µM
NCI-H460 lung
  GI50: 2.04 µM
  TGI: 4.29 µM
A498 renal
  GI50: 1.72 µM
  TGI: 3.47 µM
BT-549 breast
  GI50: 5.17 µM
  TGI: 21.2 µM
OVCAR-8 ovarian
  GI50: 5.61 µM
  TGI: > 100 µM
SR leukemia
  GI50: 1.43 µM
  TGI: 3.7 µM
SNB-75 CNS
  GI50: 1.6 µM
  TGI: 3.4 µM
MALME-3M melanoma
  GI50: 1.69 µM
  TGI: 3.22 µM
OVCAR-3 ovarian
  GI50: 4.06 µM
  TGI: 20.4 µM
MDA-MB-231 breast
  GI50: 1.97 µM
  TGI: 4.1 µM

## COc1ccc2c(c1)C(=O)c1c-2n(CCCn2ccnc2)c(=O)c2ccccc12
HCC-2998 colon
  GI50: 0.72 µM
  TGI: 2.91 µM
NCI-H460 lung
  GI50: 0.128 µM
  TGI: 1.46 µM
A498 renal
  GI50: 0.471 µM
  TGI: 1.76 µM
BT-549 breast
  GI50: 0.478 µM
  TGI: 3.87 µM
OVCAR-8 ovarian
  GI50: 0.602 µM
  TGI: > 69.2 µM
SR leukemia
  GI50: 0.0765 µM
  TGI: 7.81 µM
SNB-75 CNS
  GI50: 0.843 µM
  TGI: > 22.4 µM
MALME-3M melanoma
  GI50: 1.25 µM
  TGI: 6.44 µM
OVCAR-3 ovarian
  GI50: 0.901 µM
MDA-MB-231 breast
  GI50: 3.79 µM
  TGI: > 79.1 µM

## CCN(CC)c1sc(N(CC)CC)c2c1SSSSS2
HCC-2998 colon
  GI50: 0.935 µM
  TGI: 2.4 µM
NCI-H460 lung
  GI50: 2.48 µM
  TGI: 6.02 µM
A498 renal
  GI50: 2.03 µM
  TGI: 3.54 µM
BT-549 breast
  GI50: 2.06 µM
  TGI: 4.8 µM
OVCAR-8 ovarian
  GI50: 2.18 µM
  TGI: 4.7 µM
SR leukemia
  GI50: 0.267 µM
  TGI: 0.998 µM
SNB-75 CNS
  GI50: 2.71 µM
  TGI: 4.52 µM
MALME-3M melanoma
  GI50: 1.59 µM
  TGI: 3.45 µM
OVCAR-3 ovarian
  GI50: 1.44 µM
  TGI: 3.39 µM
MDA-MB-231 breast
  GI50: 0.894 µM
  TGI: 2.41 µM

## Nc1ncc(-c2cnn(CCO)c2)c2scc(-c3ccc(NC(=O)Nc4cccc(F)c4)cc3)c12
HCC-2998 colon
  GI50: 1.39 µM
  TGI: 6.79 µM
NCI-H460 lung
  GI50: < 0.0355 µM
  TGI: 4.21 µM
A498 renal
  GI50: 0.122 µM
  TGI: 0.663 µM
BT-549 breast
  GI50: 0.618 µM
  TGI: 3.76 µM
OVCAR-8 ovarian
  GI50: 0.253 µM
  TGI: 2.39 µM
SR leukemia
  GI50: < 0.01 µM
  TGI: 1.26 µM
SNB-75 CNS
  GI50: 0.271 µM
  TGI: 1.74 µM
MALME-3M melanoma
  GI50: 0.132 µM
  TGI: 1.38 µM
OVCAR-3 ovarian
  GI50: 1.16 µM
  TGI: 5.87 µM
MDA-MB-231 breast
  GI50: 1.14 µM
  TGI: 2.91 µM

## Fc1cc(F)c(COc2cc(Cn3cnc4c(Cl)nc(Cl)nc43)ccc2C23CC4CC(CC(C4)C2)C3)cc1F
HCC-2998 colon
  GI50: 18.7 µM
  TGI: 33.5 µM
NCI-H460 lung
  GI50: 19.4 µM
  TGI: 37.5 µM
A498 renal
  GI50: 99.2 µM
  TGI: > 100 µM
BT-549 breast
  GI50: 11 µM
  TGI: 24.5 µM
OVCAR-8 ovarian
  GI50: 18 µM
  TGI: 38.4 µM
SNB-75 CNS
  GI50: 21.7 µM
  TGI: 52.1 µM
MALME-3M melanoma
  GI50: 1.92 µM
  TGI: 4.75 µM
OVCAR-3 ovarian
  GI50: 15.6 µM
  TGI: 30.2 µM
MDA-MB-231 breast
  GI50: 17.5 µM
  TGI: 32.7 µM

## COC(=O)C(=O)C(C(=O)C(=O)Nc1ccccc1C(N)=O)c1nc2ccc(Cl)cc2[nH]c1=O (configuration not stated)
HCC-2998 colon
  TGI: > 100 µM
NCI-H460 lung
  TGI: > 100 µM
A498 renal
  TGI: > 100 µM
BT-549 breast
  TGI: > 100 µM
OVCAR-8 ovarian
  TGI: > 100 µM
SR leukemia
  TGI: > 100 µM
SNB-75 CNS
  TGI: > 100 µM
OVCAR-3 ovarian
  TGI: > 100 µM
MDA-MB-231 breast
  TGI: > 100 µM

Source: PubChem BioAssay (NCI)
